Measured values: patent US20070099995A1, “Use of hydroxyoleic acid and related compounds as functional food additives” (priority 2003, published 2007)

Tests used:
[1] = Hypotensive test: systolic arterial pressure in female Sprague-Dawley rats; format: in vivo, rat; settings: for effect on systolic arterial pressure with respect to the control: short-term (2 to 4 hours) administration, female Sprague-Dawley rats, FIG. 5; for reduction of blood pressure: rats
Method: (§1) 2-Hydroxyoleic acid induced significant reductions of blood pressure in rats (FIG. 4a). These reductions occurred rapidly (at 2 hours of treatment, 19±6 mmHg, P<0.01, n=6) and after a long period (1 week, 26±7 mmHg, P<0.001, n=6). In genetically hypertensive rats, SHR strain, ingestion of 2-hydroxyoleic acid (600 mg/kg every 12 hours) produced very marked reductions in blood pressure. These reductions, of some 70 mmHg, induced normalization of systolic pressure in hypertensive SHR rats.

Blood pressure in humans = format: in vivo, human; settings: 90 mg/kg per day for 8 days, FIG. 4b
From the text: The days prior to treatment are shown with negative values. *P<0.05, **P<0.01.

[2] = Body weight of normotensive (WKY) and hypertensive (SHR) rats; format: in vivo, rat; settings: 600 mg/kg every 12 hours, 8 days
Method: In another series of experiments, the diet of normotensive rats (WKY) and hypertensive rats (SHR) was supplemented with hydroxyoleic acid (600 mg/kg, every 12 hours) and it was confirmed that the weight of the animals decreased by between 30 and 40 grams (15-20% of the body weight) in an 8-day diet period (FIG. 8).

G-proteins = experiment: Binding of [35S]GTPγS to membranes of NIH 3T3 cells transfected with the rat adrenoceptor α2A/D (activity of G-proteins); format: biochemical; settings: membranes of NIH 3T3 cells transfected with rat adrenoceptor α2A/D; FIG. 2; compared with daunomycin
From the text: Hydroxyoleic acid and related compounds are capable of modulating the activity of G-proteins, measured by the binding of [^35S] GTPγS (FIG. 2). […] Abscissa: C=control; 2OHOA=2-hydroxyoleic; DNM=daunomycin. Ordinate: Binding of [^35S]GTPγS (% of control).

[3] = Systolic arterial pressure in genetically hypertensive rats, SHR strain; format: in vivo, rat
Method: as §1
(§2) In SHRs which were not given 2-hydroxyoleic acid (SHR empty squares), no reduction in arterial pressure was observed. […] The reduction induced by hydroxyoleic acid on arterial pressure meant that there was no significant difference between the values registered at the end of the diet period for the hypertensive and normotensive rats.

[4] = Systolic arterial pressure in normotensive WKY rats; format: in vivo, rat; settings: male WKY (normotensive) rats, 600 mg/kg every 12 hours for 7 days, FIG. 6
Method: as §1, §2

[5] = Blood pressure and heart rate after ingestion (species not stated); format: in vivo; settings: chronic treatments lasting a week
Method: The hypotensive effect produced by ingestion of 2-hydroxyoleic acid and its analogs results in a reduction in blood pressure within 2 hours of ingestion, and this is maintained for days and weeks while ingestion of this compound is maintained. Aminoleic acid, for example, reduces blood pressure by 15 mmHg in chronic treatments lasting a week.

CCCCCC/C=C\CCCCCCCC(=O)O [palmitoleic acid]
effect on systolic arterial pressure with respect to the control [1]: significant decreases

CCCCCCCC/C=C\CCCCCCC(C)C(=O)O (stereo not drawn) [2-methyl oleic acid]
effect on systolic arterial pressure with respect to the control [1]: significant decreases

CCCCCCCC/C=C\CCCCCCC(O)C(=O)O (stereo not drawn) [2-hydroxyoleic acid, cis-2-hydroxy-9-octadecenoic acid]
effect on blood pressure (Blood pressure in humans): significant, large decreases
reduction of blood pressure ([1]; 1 week (chronic, 90 mg/kg per day for 7 days, FIG. 4a), n=6, P<0.001): 26±7 mmHg
reduction of blood pressure ([1]; at 2 hours of treatment (acute, 30 mg/kg, FIG. 4a), n=6, P<0.01): 19±6 mmHg
effect on systolic arterial pressure with respect to the control [1]: significant decreases
reduction in body weight [2]: 15-20%
Binding of [35S]GTPγS (function of the G-proteins) (G-proteins): decrease in function of the G-proteins even greater than daunomycin
reduction in blood pressure (systolic) ([3]; SHR rats, 600 mg/kg every 12 hours): ~70 mmHg
effect on systolic arterial pressure ([3]; male SHR rats, 600 mg/kg every 12 hours for 7 days, FIG. 6): significant, large reductions
effect on arterial pressure [4]: neither the 2-hydroxyoleic acid (black circles) nor the vehicle (empty circles) produced statistically significant changes

CCCCCCCC/C=C\CCCCCCCCCCCCCC(=O)O [nervonic acid]
effect on systolic arterial pressure with respect to the control [1]: significant decreases

CCCCCCCC/C=C\CCCCCCCC(=O)O [oleic acid]
effect on systolic arterial pressure with respect to the control [1]: significant decreases

CCCCCC/C=C\CCCCCCCCCC(=O)O [cis-vaccenic acid]
effect on systolic arterial pressure with respect to the control [1]: significant decreases

Aminoleic acid
reduction of blood pressure [5]: 15 mmHg
